This assay concerns the target T1, F508delCFTR (Homo sapiens, UniProt P13569, DEL508-508).
T1 construct: expressed in transfected cells; host or cells: CFBE41o- human lung-derived epithelial cells (CFBE4lo-F508delCFTR-HRP), doxycycline-inducible
Nature of the assay: Cell Surface Expression-Horse Radish Peroxidase (CSE-HRP) Assay.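 As to Maximum % activity (with co-corrector): co-corrector and positive control are both the same reference corrector at 2 µM.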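 As to Maximum % activity (without co-corrector): percent of the 2 µM on-plate positive control corrector response above DMSO.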 In kind it is cell-based. As to conditions: for Maximum % activity (with co-corrector) / Emax: maximum at any tested concentration, normalized to on-plate positive control; for Emax: read-out: Maximum % activity (without co-corrector).

Where [1] appears, read: CSE-HRP, test compound without co-corrector, read-out: EC50 (without co-corrector).
Setting [2] is: CSE-HRP, with co-corrector (2 μM of 3-[(2R,4R)-4-({[1-(2,2-difluoro-1,3-benzodioxol-5-yl)cyclopropyl]carbonyl}amino)-7-methoxy-3,4-dihydro-2H-chromen-2-yl]benzoic acid), read-out: EC50 (with co-corrector).
The mark [3] stands for this setting: CSE-HRP, with co-corrector (2 μM).
Where [4] appears, read: test compound without co-corrector, read-out: EC50 (without co-corrector).
The mark [5] stands for this setting: with co-corrector (2 μM of 3-[(2R,4R)-4-({[1-(2,2-difluoro-1,3-benzodioxol-5-yl)cyclopropyl]carbonyl}amino)-7-methoxy-3,4-dihydro-2H-chromen-2-yl]benzoic acid), read-out: EC50 (with co-corrector).
[6] abbreviates: test compound without co-corrector.
The mark [7] stands for this setting: with co-corrector (2 μM of 3-[(2R,4R)-4-({[1-(2,2-difluoro-1,3-benzodioxol-5-yl)cyclopropyl]carbonyl}amino)-7-methoxy-3,4-dihydro-2H-chromen-2-yl]benzoic acid).

Like-named read-outs stand apart in the source and are kept apart here.

T1 sequence (P13569 with tags, fused parts or gaps DEL508-508): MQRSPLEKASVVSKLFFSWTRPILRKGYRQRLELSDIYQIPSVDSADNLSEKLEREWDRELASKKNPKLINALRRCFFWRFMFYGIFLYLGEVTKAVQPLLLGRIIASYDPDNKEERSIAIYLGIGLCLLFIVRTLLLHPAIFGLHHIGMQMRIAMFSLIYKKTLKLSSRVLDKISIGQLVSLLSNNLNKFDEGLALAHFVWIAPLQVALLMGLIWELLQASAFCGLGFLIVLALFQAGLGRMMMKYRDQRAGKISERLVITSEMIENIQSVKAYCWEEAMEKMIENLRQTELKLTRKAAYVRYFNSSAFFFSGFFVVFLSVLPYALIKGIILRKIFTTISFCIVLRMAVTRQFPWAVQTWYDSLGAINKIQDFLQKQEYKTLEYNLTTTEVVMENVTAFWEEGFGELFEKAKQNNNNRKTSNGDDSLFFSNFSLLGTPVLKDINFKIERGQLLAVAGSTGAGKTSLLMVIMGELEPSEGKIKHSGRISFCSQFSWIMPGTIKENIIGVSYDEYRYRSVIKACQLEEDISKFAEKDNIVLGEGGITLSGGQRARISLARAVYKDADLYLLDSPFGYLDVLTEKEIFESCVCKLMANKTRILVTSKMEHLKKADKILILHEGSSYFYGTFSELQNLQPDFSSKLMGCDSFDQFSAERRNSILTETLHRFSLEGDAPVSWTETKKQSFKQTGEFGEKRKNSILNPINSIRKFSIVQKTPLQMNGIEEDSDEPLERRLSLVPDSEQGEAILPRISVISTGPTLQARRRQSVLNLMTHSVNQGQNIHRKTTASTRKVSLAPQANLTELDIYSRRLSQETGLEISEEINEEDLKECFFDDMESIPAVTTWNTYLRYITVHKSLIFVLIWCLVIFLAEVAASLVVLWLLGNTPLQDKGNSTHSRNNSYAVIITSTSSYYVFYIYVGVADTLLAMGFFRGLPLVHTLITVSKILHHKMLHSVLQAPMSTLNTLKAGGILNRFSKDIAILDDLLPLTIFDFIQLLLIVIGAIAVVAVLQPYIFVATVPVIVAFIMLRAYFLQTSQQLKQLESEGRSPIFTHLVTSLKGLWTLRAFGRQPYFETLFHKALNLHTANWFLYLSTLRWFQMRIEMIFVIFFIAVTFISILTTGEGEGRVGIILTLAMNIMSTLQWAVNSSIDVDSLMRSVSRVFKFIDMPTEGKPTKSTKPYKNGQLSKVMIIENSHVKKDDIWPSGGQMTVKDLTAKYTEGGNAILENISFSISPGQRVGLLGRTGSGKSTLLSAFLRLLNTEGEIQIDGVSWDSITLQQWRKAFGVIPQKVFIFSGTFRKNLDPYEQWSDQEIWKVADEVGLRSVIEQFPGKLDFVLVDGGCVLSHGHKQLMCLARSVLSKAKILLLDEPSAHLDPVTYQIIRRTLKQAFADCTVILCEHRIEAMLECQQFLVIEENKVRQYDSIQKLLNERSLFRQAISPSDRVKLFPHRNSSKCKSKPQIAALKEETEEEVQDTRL

In general, EC50 refers to the concentration at which the effect is half-maximal. On to `COc1cc2c(cc1CN[C@H]1[C@H](C(C)(C)C)[C@@H](C(=O)O)N(C(=O)C3CCCCC3)[C@H]1c1ccccc1)OCO2` [II-116], for which the EC50 by setting is: under setting [1], 1 to 10 µM; under setting [2], 1 to 10 µM. The “Maximum % activity (with co-corrector)” value under setting [3] is given as “+++ (≥350)”. The Emax (CSE-HRP, without co-corrector) lay within 100 to 200%.
`COc1ccc(C(F)(F)F)cc1CN[C@H]1[C@H](C(C)(C)C)[C@@H](C(=O)O)N(C(=O)OC(C)C)[C@H]1c1ccccc1C(C)C` [Example 83, (2S,3S,4S,5S)-3-tert-butyl-4-({[2-methoxy-5-(trifluoromethyl)phenyl]methyl}amino)-1-{[(propan-2-yl)oxy]carbonyl}-5-[2-(propan-2-yl)phenyl]pyrrolidine-2-carboxylic acid]: the EC50 is 1 to 10 µM under setting [4] and less than 1 µM under setting [5]. Besides, the “Maximum % activity (with co-corrector)” value (with co-corrector (2 μM)) was “+++ (≥350)”. The Emax (without co-corrector) was more than 200%.
The corresponding values for `COc1cc(C(F)(F)F)ccc1CN[C@H]1[C@H](C(C)(C)C)[C@@H](C(=O)O)N(C(=O)C2CCCCC2)[C@H]1c1cccnc1OC` [Example I-39] are 1 to 10 µM, less than 1 µM, “+++ (≥350)” and 100 to 200%.
Consider `CC(C)(C)[C@@H]1[C@@H](Nc2cc(C(F)(F)F)cc(=O)[nH]2)[C@@H](c2ccccc2)N(C(=O)C2CCCCC2)[C@H]1C(=O)O` (racemic) [III-23], for which the Emax under setting [6] was less than 100%. The EC50 by setting is: under setting [4], more than 10 µM; under setting [5], more than 10 µM. Further, the “Maximum % activity (with co-corrector)” value under setting [7] was “+ (<150)”.
As to `COc1nc(C(C)(C)C)ccc1CN[C@H]1[C@H](C(C)(C)C)[C@@H](C(=O)O)N(C(=O)OC(C)C)[C@H]1c1cccnc1N(C)C` [III-219], the Emax under setting [6] lay within 100 to 200%. In addition, the EC50 reads like this: under setting [4], 1 to 10 µM; under setting [5], less than 1 µM. Further, the “Maximum % activity (with co-corrector)” value (with co-corrector (2 μM)) is reported as “+++ (≥350)”.
Consider `Cc1cc(C(F)(F)F)cc(N[C@@H]2[C@@H](C(C)(C)C)[C@H](C(=O)NS(=O)(=O)C3(C)CC3)N(C(=O)C3CCCCC3)[C@@H]2c2ccccc2)n1` (racemic) [III-51], for which, under setting [6], the Emax was less than 100%. The EC50 by setting is: under setting [4], 1 to 10 µM; under setting [5], 1 to 10 µM. The “Maximum % activity (with co-corrector)” value under setting [7] is “++ (≥150 and <350)”.
Regarding `COc1ccnc(CN[C@@H]2[C@@H](C(C)(C)C)[C@H](C(=O)O)N(C(=O)C3CCCCC3)[C@@H]2c2ccccc2)n1` (racemic) [III-22], under setting [6], the Emax is less than 100%. For the same molecule, the EC50 is, setting by setting: under setting [4], more than 10 µM; under setting [5], more than 10 µM. Besides, under setting [7], the “Maximum % activity (with co-corrector)” value is “+ (<150)”.
On to `COc1ccc(C23CC(C2)C3)cc1CN[C@H]1[C@H](C(C)(C)C)[C@@H](C(=O)O)N(C(=O)[C@H]2CCCCO2)[C@H]1c1cccnc1N(C)C` [Example 52, (2S,3S,4S,5S)-4-({[5-(bicyclo[1.1.1]pentan-1-yl)-2-methoxyphenyl]methyl}amino)-3-tert-butyl-5-[2-(dimethylamino)pyridin-3-yl]-1-[(2R)-oxane-2-carbonyl]pyrrolidine-2-carboxylic acid], for which the EC50 under setting [4] lay in the range of 1 to 10 µM and the EC50 under setting [5] was 1 to 10 µM. Further, the “Maximum % activity (with co-corrector)” value (with co-corrector (2 μM)) is reported as “+++ (≥350)”. The Emax (without co-corrector) lay in the range of 100 to 200%.
Consider `COc1ccc(C(C)(C)C)cc1CN[C@H]1[C@H](C(C)(C)C)[C@@H](C(=O)O)N(C(=O)[C@H]2COc3ccccc3O2)[C@H]1c1ccccc1` [Example I-167], for which the EC50 is, setting by setting: under setting [4], 1 to 10 µM; under setting [5], less than 1 µM. The “Maximum % activity (with co-corrector)” value (with co-corrector (2 μM)) is “+++ (≥350)”. Under “without co-corrector”, the Emax is more than 200%.
With `COc1cc(F)ccc1CN[C@@H]1[C@@H](C(C)(C)C)[C@H](C(=O)O)N(C(=O)OC(C)C)[C@@H]1c1ccccc1` (racemic) [II-39], the EC50 was 1 to 10 µM under setting [1] and 1 to 10 µM under setting [2]. For the same molecule, under setting [3], the “Maximum % activity (with co-corrector)” value is listed as “+++ (≥350)”. In addition, where the note is “CSE-HRP, without co-corrector”, the Emax is 100 to 200%.
As to `COc1cc(C(F)(F)F)ccc1CN[C@@H]1[C@@H](C(C)(C)C)[C@H](C(=O)O)N(C(=O)OC2CCC2)[C@@H]1c1ccccc1` (racemic) [III-114], the Emax under setting [6] is 100 to 200%. Besides, the EC50 was in the range of 1 to 10 µM under setting [4] and 1 to 10 µM under setting [5]. Moreover, the “Maximum % activity (with co-corrector)” value (with co-corrector (2 μM)) is “+++ (≥350)”.
On to `COc1ncc(C2CCC2)cc1CN[C@H]1[C@H](C(C)(C)C)[C@@H](C(=O)O)N(C(=O)[C@H]2CCCCO2)[C@H]1c1ccccc1C` [Example I-266], for which the EC50 is 1 to 10 µM under setting [1] and 1 to 10 µM under setting [2]. Under setting [3], the “Maximum % activity (with co-corrector)” value is on record as “+++ (≥350)”. Further, the Emax (CSE-HRP, without co-corrector) was more than 200%.
For `COc1ccc(CC2CCCCC2)cc1CN[C@H]1[C@H](C(C)(C)OC)[C@@H](C(=O)O)N(C(=O)C2CCCCC2)[C@H]1c1ccccc1` [Example I-118], the EC50 under setting [4] was less than 1 µM and the EC50 under setting [5] was less than 1 µM. The “Maximum % activity (with co-corrector)” value (with co-corrector (2 μM)) is listed as “+++ (≥350)”. Under “without co-corrector”, the Emax is more than 200%.
For the molecule `COc1ccc(C(C)(C)C)cc1CN[C@H]1[C@H](C(C)(C)C)[C@@H](C(=O)O)N(C(=O)Cc2ccccc2C)[C@H]1c1ccccc1` [II-205], the EC50 under setting [1] is less than 1 µM and the EC50 under setting [2] was less than 1 µM. Also, the “Maximum % activity (with co-corrector)” value under setting [3] is on record as “+++ (≥350)”. Moreover, the Emax (CSE-HRP, without co-corrector) was more than 200%.
In the case of `COc1ccc(C(C)(C)C)cc1CN[C@H]1[C@H](C(C)(C)C)[C@@H](C(=O)O)N(C(=O)C2COc3ccccc3O2)[C@H]1c1cccnc1N(C)C` (single isomer, unassigned) [II-471], the Emax under setting [6] is less than 100%. Moreover, the EC50 reads like this: under setting [4], more than 10 µM; under setting [5], less than 1 µM. Besides, the “Maximum % activity (with co-corrector)” value under setting [7] is “++ (≥150 and <350)”.
In the case of `Cc1cc(C(F)(F)F)cc(N[C@@H]2[C@@H](C)[C@H](C(=O)O)N(C(=O)N(C(C)C)C(C)C)[C@@H]2c2ccccc2)n1` [II-11], the EC50 runs as follows: under setting [1], 1 to 10 µM; under setting [2], 1 to 10 µM. Besides, under setting [3], the “Maximum % activity (with co-corrector)” value was “+++ (≥350)”. For the same molecule, where the note is “CSE-HRP, without co-corrector”, the Emax was less than 100%.
As to `COc1cc2c(cc1CN[C@H]1[C@H](C(C)(C)C)[C@@H](C(=O)O)N(C(=O)C3CCCCC3)[C@H]1c1ccccc1)CCCC2` [II-125], the EC50 was 1 to 10 µM under setting [1] and less than 1 µM under setting [2]. In addition, the “Maximum % activity (with co-corrector)” value under setting [3] is given as “+++ (≥350)”. Also, the Emax (CSE-HRP, without co-corrector) was more than 200%.
Take `COc1ncc(C(F)(F)F)cc1CN[C@H]1[C@H](C(C)(C)C)[C@@H](C(=O)O)N(C(=O)[C@@H]2CCCCO2)[C@H]1c1ccccc1C1CC1` [Example 116, (2S,3S,4S,5S)-3-tert-butyl-5-(2-cyclopropylphenyl)-4-({[2-methoxy-5-(trifluoromethyl)pyridin-3-yl]methyl}amino)-1-[(2S)-oxane-2-carbonyl]pyrrolidine-2-carboxylic acid]: the EC50 by setting is: under setting [4], 1 to 10 µM; under setting [5], less than 1 µM. Besides, the “Maximum % activity (with co-corrector)” value (with co-corrector (2 μM)) is reported as “+++ (≥350)”. The Emax (without co-corrector) is more than 200%.
The corresponding values for `CCc1ccccc1[C@H]1[C@@H](NCc2cc(C3CCC3)cnc2OC)[C@H](C(C)(C)C)[C@@H](C(=O)O)N1C(=O)[C@@H]1CCCO1` [Example 111, (2S,3S,4S,5S)-3-tert-butyl-4-{[(5-cyclobutyl-2-methoxypyridin-3-yl)methyl]amino}-5-(2-ethylphenyl)-1-[(2S)-oxolane-2-carbonyl]pyrrolidine-2-carboxylic acid] are 1 to 10 µM, 1 to 10 µM, “+++ (≥350)” and more than 200%.
Regarding `COc1ccc(C(C)(C)C)cc1CN[C@H]1[C@H](C(C)(C)C)[C@@H](C(=O)O)N(C(=O)C2CC(C)CC(C)C2)[C@H]1c1cccnc1N(C)C` (stereo partly drawn) [II-469], under setting [6], the Emax fell in the range of 100 to 200%. Moreover, the concentration for a half-maximal effect (EC50) reads like this: under setting [4], 1 to 10 µM; under setting [5], 1 to 10 µM. The “Maximum % activity (with co-corrector)” value under setting [7] is “+++ (≥350)”.
In the case of `CCn1c(C)c(CC(=O)N2[C@H](C(=O)O)[C@@H](C(C)(C)C)[C@H](NCc3cc(C(C)(C)C)ccc3OC)[C@@H]2c2ccccc2)c2ccccc21` [II-172], the EC50 is, setting by setting: under setting [1], 1 to 10 µM; under setting [2], less than 1 µM. Also, under setting [3], the “Maximum % activity (with co-corrector)” value is listed as “+++ (≥350)”. Further, where the note is “CSE-HRP, without co-corrector”, the Emax is more than 200%.
As to `COc1nc(C(C)(C)C)ccc1CN[C@H]1[C@H](C(C)(C)C)[C@@H](C(=O)O)N(C(=O)C2CCCC(F)(F)C2)[C@H]1c1ccccc1` (stereo partly drawn) [Example I-180], the EC50 runs as follows: under setting [4], 1 to 10 µM; under setting [5], 1 to 10 µM. Also, under “with co-corrector (2 μM)”, the “Maximum % activity (with co-corrector)” value was “+++ (≥350)”. Further, the Emax (without co-corrector) is more than 200%.
As to `COc1ccc(-c2ccccc2)cc1CN[C@H]1[C@H](C(C)(C)C)[C@@H](C(=O)O)N(C(=O)OC(C)C)[C@H]1c1cccnc1N(C)C` [II-547], the Emax under setting [6] is more than 200%. For the same molecule, the EC50 by setting is: under setting [4], 1 to 10 µM; under setting [5], 1 to 10 µM. Moreover, the “Maximum % activity (with co-corrector)” value under setting [7] is given as “+++ (≥350)”.
Take `COc1ccc(C(C)(C)C)cc1CN[C@H]1[C@H](C(C)(C)C)[C@@H](C(=O)O)N(C(=O)Cc2ccc(F)cc2F)[C@H]1c1ccccc1` [III-173]: under setting [6], the Emax is more than 200%. Moreover, the EC50 runs as follows: under setting [4], 1 to 10 µM; under setting [5], less than 1 µM. Moreover, where the note is “with co-corrector (2 μM)”, the “Maximum % activity (with co-corrector)” value is recorded as “+++ (≥350)”.

The record behind these values is patent publication US20180099931A1 (AbbVie S.à.r.l., priority 2016, published 2018).
